Results as given in patent publication US11827664B2, “Biaryl amides with modified sugar groups for treatment of diseases associated with heat shock protein pathway” (REATA PHARMACEUTICALS, INC., priority 2018, dated 2023).

Key:
[1] = Stability in acidic medium, monitored by HPLC; assay type: physicochemical; conditions: 0.1 N aq. HCl/MeOH (2/1 v/v), room temperature
Description: A sample of a test compound (1.2 mg) was dissolved in 0.1 N aq. HCl/MeOH (2/1 v/v, 4 mL) at room temperature. The degradation of the test compound was monitored by HPLC. The percentage of the test compound remaining was calculated using the peak area % in HPLC.

[2] = system: rat streptozotocin induced diabetes model for painful diabetic neuropathy; assay: Streptozotocin-induced rat model of painful diabetic neuropathy, Von Frey measurement for allodynia; assay type: in vivo; conditions: STZ 60 mg/kg IV, oral QD dosing started on Day 10
Description: A streptozotocin-induced rat model was used to test the effectiveness of KU-596 (T0) and several of the instant compounds in a model of painful diabetic neuropathy. The study rats were allowed to accliminate to the Von Frey apparatus for one day prior to the initial Von Frey measurement. A baseline Von Frey measurement, a body weight measurement, and blood glucose level measurements were conducted one day before the intravenous administration of streptozotocin to induce diabetes. […] Each of the animals in a treatment group was dosed with either the vehicle or a therapeutic agent orally. Treatment was continued until euthanasia approximately one to two weeks later.
Streptozotocin was injected into rats to induce diabetes after a baseline Von Frey measurement for allodynia was collected. Oral administration of each test drug (Compound T0 (KU-596), FIG. 1A; Compound T2, FIG. 1B, and Compound T1, FIG. 1C) was started on Day 10 after another Von Frey measurement.

diabetic mice = conditions: cited from earlier work
neurons [3] = conditions: in vitro; cited from earlier work
neurons [4] = conditions: cited from earlier work; for effect on mitochondrial function / bioenergetics: neurons
[5] = molecular target: Hsp90 C-terminus nucleotide binding pocket; conditions: low affinity; Marcu, et al., 2000; cited from earlier work
[6] = 22 hours (footnote *, printed in the 24 h line)

Row | SMILES | percentage of test compound remaining (HPLC peak area %) ([1]; 0 h) | percentage of test compound remaining (HPLC peak area %) ([1]; 4 h) | percentage of test compound remaining (HPLC peak area %) ([1]; 8 h) | percentage of test compound remaining (HPLC peak area %) ([1]; 12 h) | percentage of test compound remaining (HPLC peak area %) ([1]; 16 h) | percentage of test compound remaining (HPLC peak area %) ([1]; 20 h) | percentage of test compound remaining (HPLC peak area %) [1, 6] | percentage of test compound remaining (HPLC peak area %) ([1]; 24 h) | activity in model of painful diabetic neuropathy relative to T0 (KU-596), Von Frey measurement [2] | effect on symptoms of DPN / neuropathy in diabetic mice (diabetic mice) | protection of neurons from hyperglycemic conditions (neurons [3]) | effect on expression of inflammatory markers (neurons [4]; diabetic neurons) | effect on mitochondrial function / bioenergetics (neurons [4]) | IC50 [5]
1 | CC(=O)NCCc1ccc(O[C@@H]2O[C@@H](C)[C@H](O)[C@@H](O)[C@H]2O)cc1-c1cccc(F)c1 [T1] | 100.0% | 101.1% | 100.1% | 100.5% | 100.4% | 100.3% |  | 100.4% | comparable to slightly better activity |  |  |  |  | 
2 | CO[C@@H]1[C@@H](O)[C@@H](O)C(Oc2ccc(CCNC(C)=O)c(-c3cccc(F)c3)c2)OC1(C)C (stereo partly drawn) [KU-596, N-(2-(5-(((3R,4S,5R)-3,4-dihydroxy-5-methoxy-6,6-dimethyltetra-hydro-2H-pyran-2-yl)oxy)-3′-fluoro-[1,1′-biphenyl]-2-yl)ethyl)-acetamide] |  |  |  |  |  |  |  |  |  | alleviate symptoms of neuropathy in diabetic mice | protect neurons from hyperglycemic conditions in vitro | reduce the expression of inflammatory markers in diabetic neurons | improve impaired mitochondrial function in neurons | 
3 | CO[C@@H]1[C@@H](O)[C@@H](O)[C@H](Oc2ccc(CCNC(C)=O)c(-c3cccc(F)c3)c2)O[C@H]1C [T2] | 100.0% | 99.9% | 99.5% | 99.8% | 100.2% | 99.9% | 100.2* % |  | comparable to slightly better activity |  |  |  |  | 
4 | CO[C@@H]1[C@@H](OC(N)=O)[C@@H](O)[C@H](Oc2ccc3c(O)c(NC(=O)c4ccc(O)c(CC=C(C)C)c4)c(=O)oc3c2C)OC1(C)C [novobiocin] |  |  |  |  |  |  |  |  |  |  |  |  |  | ~700 µM
5 | CNC(=O)CCc1ccc(O[C@@H]2O[C@@H](C)[C@H](OC)[C@@H](O)[C@H]2O)cc1-c1cccc(F)c1 [T11] | 100.0% | 100.2% | 100.3% | 100.6% | 100.9% | 101.4% |  | 102.1% |  |  |  |  |  | 
6 | CC(=O)NCCc1ccc(O[C@@H]2OC(C)(C)[C@H](OC(F)F)[C@@H](O)[C@H]2O)cc1-c1cccc(F)c1 [T6] | 100.0% | 99.1% | 99.0% | 97.6% | 96.6% | 96.0% |  | 95.7% |  |  |  |  |  | 
7 | CC(=O)NCCc1ccc(O[C@@H]2OC(C)(C)[C@H](O)[C@@H](O)[C@H]2O)cc1-c1cccc(F)c1 [T3] | 100.0% | 98.1% | 96.1% | 94.1% | 92.2% | 90.2% |  | 88.3% |  |  |  |  |  | 
8 | CC(=O)NCCc1ccc(O[C@@H]2OC(C)(C)[C@H](OCc3ccccc3)[C@@H](O)[C@H]2O)cc1-c1cccc(F)c1 [T7] | 100.0% | 93.3% | 85.6% | 78.8% | 71.5% | 65.5% |  | 61.7% |  |  |  |  |  | 
9 | CO[C@@H]1[C@@H](O)[C@@H](O)[C@H](Oc2ccc(CCNC(C)=O)c(-c3cccc(F)c3)c2)OC1(C)C [T0, reference compound] | 100.0% | 96.7 ± 1.4% | 93.4 ± 1.7% | 90.5 ± 2.3% | 87.3 ± 2.9% | 83.9 ± 4.1% |  | 81.8 ± 4.2% |  |  |  |  |  | 
10 | CO[C@@H]1[C@@H](O)[C@@H](O)[C@H](Oc2ccc3cc(NC(C)=O)c(=O)oc3c2C)OC1(C)C [KU-32] |  |  |  |  |  |  |  |  |  | significant activity in reversing established symptoms of DPN in diabetic mice |  |  | improve mitochondrial bioenergetics | 

Now from value to molecule, other results behind:

Row | percentage of test compound remaining (HPLC peak area %) ([1]; 0 h) | percentage of test compound remaining (HPLC peak area %) ([1]; 4 h) | percentage of test compound remaining (HPLC peak area %) ([1]; 8 h) | percentage of test compound remaining (HPLC peak area %) ([1]; 12 h) | percentage of test compound remaining (HPLC peak area %) ([1]; 16 h) | percentage of test compound remaining (HPLC peak area %) ([1]; 20 h) | percentage of test compound remaining (HPLC peak area %) [1, 6] | percentage of test compound remaining (HPLC peak area %) ([1]; 24 h) | SMILES | activity in model of painful diabetic neuropathy relative to T0 (KU-596), Von Frey measurement [2] | effect on symptoms of DPN / neuropathy in diabetic mice (diabetic mice) | protection of neurons from hyperglycemic conditions (neurons [3]) | effect on expression of inflammatory markers (neurons [4]; diabetic neurons) | effect on mitochondrial function / bioenergetics (neurons [4]) | IC50 [5]
11 | 100.0% | 97.2% | 95.5% | 93.7% | 92.3% | 90.6% | 89.9* % |  | CO[C@@H]1[C@@H](O)[C@@H](O)[C@H](Oc2ccc(C(F)(F)CNC(C)=O)c(-c3cccc(F)c3)c2)OC1(C)C [T12] |  |  |  |  |  | 
12 | 100.0% | 99.9% | 99.0% | 98.5% | 97.9% | 97.0% |  | 96.5% | CC(=O)NCCc1ccc(O[C@@H]2O[C@@H](C)[C@@H](O)[C@@H](O)[C@@H]2O)cc1-c1cccc(F)c1 [T15] |  |  |  |  |  | 
13 | 100.0% | 97.9% | 93.4% | 90.3% | 86.4% | 82.5% |  | 79.3% | CNC(=O)CCc1ccc(O[C@@H]2OC(C)(C)[C@H](OC)[C@@H](O)[C@H]2O)cc1-c1cccc(F)c1 [T57] |  |  |  |  |  | 
14 | 100.0% | 100.4% | 100.2% | 101.0% | 101.1% | 101.3% |  | 101.2% | CC(=O)NCCc1ccc(O[C@H]2O[C@H](C)[C@@H](O)[C@H](O)[C@@H]2O)cc1-c1cccc(F)c1 [T54] |  |  |  |  |  | 
15 | 100.0% | 97.7% | 94.8% | 91.9% | 89.2% | 86.8% |  | 84.4% | CO[C@@H]1[C@@H](O)[C@@H](O)[C@@H](Oc2ccc(CCNC(C)=O)c(-c3cccc(F)c3)c2)OC1(C)C [T20] |  |  |  |  |  | 
16 | 100.0% | 97.6% | 97.6% | 97.5% | 97.2% | 98.0% |  | 97.4% | CC(=O)NCCc1ccc(O[C@@H]2O[C@@H](CO)[C@H](O)[C@@H](O)[C@H]2O)cc1-c1cccc(F)c1 [T60] |  |  |  |  |  | 
17 | 100.0% | 99.3% | 99.7% | 100.3% | 99.5% | 99.7% |  | 99.3% | CO[C@@H]1[C@@H](O)[C@@H](O)[C@H](Oc2ccc(C(F)(F)CNC(C)=O)c(-c3cccc(F)c3)c2)O[C@H]1C [T13] |  |  |  |  |  | 
